In patent US6608069B1, “Phenyl xanthine derivatives” (SmithKline Beecham Corporation, priority 1998, dated 2003):

Experiments:
[1] = test system: cytokine-stimulated human umbilical vein endothelial cells; test: Cell Adhesion Assay: adherence of fluorescently-labelled leukocytes to endothelial cell monolayers; format: cell-based; settings: inhibition of cytokine-stimulated adhesion minus basal adhesion; calcein-AM labelled leukocytes on HUVEC monolayers
Outline: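 HUVEC monolayers were stimulated with cytokine, and adhesion of calcein-AM-labelled leukocytes was quantified by fluorescence. Inhibition was calculated on cytokine-stimulated adhesion after subtracting basal adhesion of unstimulated cells.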

[2] = test system: male Lewis rats; test: Carrageenan Pleurisy Assay; format: in vivo; settings: carrageenan 0.075 mg/rat, harvested four hours after carrageenan; for % Inhibition Cells: inflammatory cells (neutrophils) in pleural exudate vs vehicle control; for % Inhibition Exudate: pleural edema (exudate) vs vehicle control
Method: 2) Carrageenan Pleurisy Assay
The antiinflammatory activity of compounds of the invention was determined by the procedure of Vinegar, R, et al., Proc. Soc. Exp. Biol. Med., 1981, 168, 24-32, using male Lewis rats of 150±20 grams. The carrageenan dose was 0.075 mg/rat. Pleural exudate was harvested four hours after injection of carrageenan. Acute antiinflammatory activity was determined by inhibition of pleural edema and inflammatory cells (neutrophils) from a negative (vehicle) control group.

Structure (SMILES) | melting point | IC50 [1] | % Inhibition Cells [2] | % Inhibition Exudate [2]
O=C(O)/C=C/c1ccc(-c2nc3c(=O)n(CC4CC5CCC4C5)c(=O)n(CC4CC5CCC4C5)c3[nH]2)cc1 (centres unmarked) [Example 12, (E)-4-(1,3-bis(bicyclo(2.2.1)hept-2-ylmethyl)-1,2,3,6-tetrahydro-2,6-dioxo-9H-purin-8-yl)cinnamic Acid] | > 250 °C | – | – | –
O=C(O)/C=C/c1ccc(-c2nc3c(=O)n(Cc4ccccc4)c(=S)n(Cc4ccccc4)c3[nH]2)cc1 [Example 17, (E)-4-(1,3-bis(benzyl)-1,2,3,6-tetrahydro-2-thioxo-6-oxo-9H-purin-8-yl)cinnamic Acid] | > 350 °C | – | – | –
O=C(O)/C=C/c1ccc(-c2nc3c(=O)n(Cc4cccc(F)c4)c(=O)n(Cc4cccc(F)c4)c3[nH]2)cc1 [Example 20, (E)-4-(1,3-bis(3-fluorobenzyl)-1,2,3,6-tetrahydro-2,6-dioxo-9H-purin-8-yl)cinnamic Acid] | > 300 °C | – | – | –
O=C(O)/C=C/c1ccc(-c2nc3c(=O)n(Cc4ccccc4F)c(=O)n(Cc4ccccc4F)c3[nH]2)cc1 [Example 21, (E)-4-(1,3-bis(2-fluorobenzyl)-1,2,3,6-tetrahydro-2,6-dioxo-9H-purin-8-yl)cinnamic Acid] | > 350 °C | – | – | –
O=C(O)/C=C/c1ccc(-c2nc3c(=O)n(CCc4ccccc4)c(=O)n(CCc4ccccc4)c3[nH]2)cc1 [Example 22, (E)-4-(1,3-bis(2-phenylethyl)-1,2,3,6-tetrahydro-2,6-dioxo-9H-purin-8-yl)cinnamic Acid] | > 350 °C | – | – | –
COCCOCCOCCOCCOCCOCCOCCOCCOCCOC(=O)/C=C/c1ccc(-c2nc3c(=O)n(Cc4ccccc4)c(=O)n(Cc4ccccc4)c3[nH]2)cc1 [Example 34] | – | < 0.1 nM | 20% | 59%

More lines, main results first:

melting point | IC50 [1] | Structure (SMILES) | % Inhibition Cells [2] | % Inhibition Exudate [2]
– | 11 ± 8 nM | COCCOCCOCCOCCOCCOCCOCCOCCOCCOC(=O)/C=C/c1ccc(-c2nc3c(=O)n(CC4CCCC4)c(=O)n(CC4CCCC4)c3[nH]2)cc1 [Example 36, (E)-4-(1,3-bis(cyclopentylmethyl)-1,2,3,6-tetrahydro-2,6-dioxo-9H-purin-8-yl)cinnamic Acid Nonaethylene Glycol Methyl Ether Ester] | 47% | 38%
– | 20 ± 10 nM | CCCn1c(=O)c2nc(-c3ccc(/C=C/C(=O)OCCOCCOCCOCCOCCOCCOCCOCCOCCOC)cc3)[nH]c2n(CC2CCCCC2)c1=O [Example 44, (E)-4-((1-propyl-3-cyclohexylmethyl)-1,2,3,6-tetrahydro-2,6-dioxo-9H-purin-8-yl)cinnamic Acid Nonaethylene Glycol Methyl Ether Ester] | 44% | 24%
– | 13 ± 9 nM | CCCn1c(=O)n(CC2CCCCC2)c(=O)c2nc(-c3ccc(/C=C/C(=O)OCCOCCOCCOCCOCCOCCOCCOCCOCCOC)cc3)[nH]c21 [Example 49, (E)-4-((1-cyclohexylmethyl-3-propyl)-1,2,3,6-tetrahydro-2,6-dioxo-9H-purin-8-yl)cinnamic Acid Nonaethylene Glycol Methyl Ether Ester] | 28% | 53%
– | 72 ± 19 nM | COCCOCCOCCOCCOCCOCCOCCOCCOCCN(C)C(=O)/C=C/c1ccc(-c2nc3c(=O)n(CC4CCCCC4)c(=O)n(CC4CCCCC4)c3[nH]2)cc1 [Example 68, (E)-4-(1,3-Bis(cyclohexylmethyl)-1,2,3,6-tetrahydro-2,6-dioxo-9H-purin-8-yl) cinnamic Acid N-methyl Nonaethylene Glycol Methyl Ether Amide] | 92% | 80%
– | > 1000 nM | CCCn1c(=O)c2nc(-c3ccc(/C=C/C(=O)NCCOCCOCCOCCOCCOCCOCCOCCOCCOC)cc3)[nH]c2n(CC2CCCCC2)c1=O [Example 73, (E)-4-((1-propyl-3-cyclohexylmethyl)-1,2,3,6-tetrahydro-2,6-dioxo-9H-purin-8-yl)cinnamic Acid Nonaethylene Glycol Methyl Ether Amide] | 0% | 0%
– | 360 ± 160 nM | CCCn1c(=O)n(CC2CCCCC2)c(=O)c2nc(-c3ccc(/C=C/C(=O)NCCOCCOCCOCCOCCOCCOCCOCCOCCOC)cc3)[nH]c21 [Example 74, (E)-4-((1-cyclohexylmethyl-3-propyl)-1,2,3,6-tetrahydro-2,6-dioxo-9H-purin-8-yl)cinnamic Acid Nonaethylene Glycol Methyl Ether Amide] | 85% | 70%
– | 3 ± 1 nM | COCCOCCOCCOCCOCCOCCOCCOCCOCCOC(=O)/C=C/c1ccc(-c2nc3c(c(=O)n(CC4CCCCC4)c(=O)n3CC3CCCCC3)n2C)cc1 [Example 79, (E)-4-(1,3-Bis(cyclohexylmethyl)-2,3,6,7-tetrahydro-2,6-dioxo-7-methyl-1H-purin-8-yl)cinnamic Acid Nonaethylene Glycol Methyl Ether Ester] | 55% | 7%
